Measurements: patent US6767569B1, “Surface decontamination of cooked sausage and processed meat and poultry products” (priority 1999, dated 2004)
Values joined by “and” are separate entries in the source; they are usually repeats but may differ in a detail not shown here. Equal entries are not always repeated. Marks after values point to notes of the source that are not given here.

Tests used:
[1] = Stability of peracetic acid solutions; format: physicochemical
Description: Peracetic acid solutions were prepared in deionized water as for Example 2 to nominal concentrations of 1000 and 2000 mg/L. Actual peracetic acid concentrations were measured at 0 and 30 minutes at around 25° C. and 50° C.

Listeria monocytogenes = test: Dip treatment of Listeria monocytogenes-inoculated frankfurters, quantitative plating on MOX agar; format: cell-based
Description: A five-strain mixture of Listeria monocytogenes was used for purposes of inoculation. To prepare this mixture, five strains of L. monocytogenes were grown individually in tryptic soy broth (TSB), for 48±2 h at 30° C. Equivalent aliquots of broth from each strain were then combined in a sterile test tube to achieve a mixed inoculum containing approximately equal populations of each of the five strains. The mixed culture was diluted as appropriate using 0.1% peptone diluent to achieve a final mixed inoculum with a cell density of approximately 10,000 colony forming units (cfu)/ml.
Packages of commercially prepared beef frankfurter sausages (“franks”) were obtained from a local retail outlet. The packages were stored at 4° C. until use (no more than 24 hours). Immediately prior to testing, the franks were removed from the commercial packaging and placed on a sterile surface in a biological safety cabinet. The franks were oriented on the surface such that no franks were in contact with each other. Using a micropipette, each individual frank (except for those used as controls) was inoculated with 0.1 ml of the previously prepared mixed inoculum with a target inoculation level of 1,000 cfu/frank. A sterile bent rod was used to spread the inoculum over the frank surface as evenly as possible. Inoculated franks were allowed to remain undisturbed on the sterile surface for at least 5 minutes prior to treatment with the decontaminant solution. Three franks were inoculated per treatment to be evaluated, one frank being tested without inoculation.
The peracetic acid used in the evaluation was obtained as a 35% concentrate under the trade name STERIS 20™ Sterilant Concentrate from STERIS Corporation (Mentor, Ohio). The concentrate was used without the buffers or other additives supplied by the manufacturer. The concentrate was diluted to appropriate nominal concentrations (100, 500, and 1000 ppm). Approximately 1 L of each concentration to be evaluated was prepared in sanitized 2 L, plastic containers. Additionally, 1 L of a control treatment, namely sterile distilled water (0 ppm peracetic acid), was also prepared in a 2 L container. Each of these four concentrations was evaluated using two exposure times, 2 and 10 seconds. Therefore, a total of eight treatments (four peracetic acid concentrations (0, 100, 500, and 1000 ppm) at two exposure times (2 and 10 seconds) were evaluated in this study. Each test was carried out two or more times for establishing reproducibility.
All peracetic acid treatments were performed inside a biological safety cabinet. Inoculated franks were dipped into the peracetic acid treatment solution (or distilled water for the 0 ppm samples) and allowed to remain submerged for either 2 or 10 seconds. Sterile utensils were employed to remove the franks from the treatment solution and transfer them to a sterile distilled water rinse. Franks were then submerged in a sterile water rinse and remained submerged for 2 or 10 seconds (i.e., the same time as they were exposed to the peracetic acid solution) and were removed with sterile utensils. Immediately after removal from the sterile water rinse, the franks were placed on a sterile surface and allowed to air dry for 5 minutes.
Following air drying, one frank per treatment was placed in a sterile Stomacher bag and analyzed quantitatively for residual L. monocytogenes populations. The remaining two franks were retained in sterile Stomacher bags and used for qualitative analysis, if necessary (in the event no surviving cells were detected using quantitative procedures).
To determine the number of surviving L. monocytogenes cells (quantitative evaluation), one frank per treatment was analyzed. The weight of the frank was determined and an appropriate volume of 0.1% peptone diluent added to achieve a 1:5 dilution. These samples were homogenized for 2 minutes using a Stomacher Lab Blender. […]

[2] = nominal 1000 mg/L, 26-29 °C, pH 2.7
[3] = nominal 1000 mg/L, 50 °C, pH 2.7
[4] = nominal 2000 mg/L, 26-29 °C, pH 2.6
[5] = nominal 2000 mg/L, 50 °C, pH 2.6

## CC(=O)OO [peracetic acid]
[1]; 1000 and 2000 mg/L nominal, around 25 °C and 50 °C
  stability of the solutions over the 30 minute period: relatively stable
[1]; [2]
  Concentration at 0 mins: 1347 mg/L
  Concentration at 30 mins: 1355 mg/L
[1]; [3]
  Concentration at 0 mins: 1310 mg/L
  Concentration at 30 mins: 1284 mg/L
[1]; [4]
  Concentration at 0 mins: 2016 mg/L
  Concentration at 30 mins: 2017 mg/L
[1]; [5]
  Concentration at 0 mins: 1937 mg/L
  Concentration at 30 mins: 1959 mg/L
Listeria monocytogenes; PAA 100 ppm (actual 114 ppm), 2 sec exposure followed by 2 sec deionized water rinse
  After treatment (CFU/frank): 180 CFU/frank and <90* CFU/frank and 90 CFU/frank
Listeria monocytogenes; PAA 100 ppm (actual 114 ppm), 2 sec exposure followed by 2 sec deionized water rinse, listed as PAA
  After treatment (CFU/frank): at least 90 CFU/frank
Listeria monocytogenes; PAA 100 ppm (actual 114 ppm), 10 sec exposure followed by 10 sec deionized water rinse, target inoculation 1,000 CFU/frank
  After treatment (CFU/frank): <90* CFU/frank and 180 CFU/frank
Listeria monocytogenes; PAA 100 ppm (actual 114 ppm), 10 sec exposure followed by 10 sec deionized water rinse, target inoculation 1,000 CFU/frank, listed as PAA
  After treatment (CFU/frank): at least 90 CFU/frank
Listeria monocytogenes; PAA 500 ppm (actual 572 ppm), 2 sec exposure followed by 2 sec deionized water rinse
  After treatment (CFU/frank): <90* CFU/frank and 90 CFU/frank
Listeria monocytogenes; PAA 500 ppm (actual 572 ppm), 2 sec exposure followed by 2 sec deionized water rinse, listed as PAA
  After treatment (CFU/frank): < 90 CFU/frank
Listeria monocytogenes; PAA 500 ppm (actual 572 ppm), 10 sec exposure followed by 10 sec deionized water rinse
  After treatment (CFU/frank): <90* CFU/frank
Listeria monocytogenes; PAA 500 ppm (actual 572 ppm), 10 sec exposure followed by 10 sec deionized water rinse, listed as PAA
  After treatment (CFU/frank): less than the detection limit of the quantitative plating procedure
Listeria monocytogenes; PAA 1000 ppm (actual 1146 ppm), 2 sec exposure followed by 2 sec deionized water rinse
  After treatment (CFU/frank): <90* CFU/frank
Listeria monocytogenes; PAA 1000 ppm (actual 1146 ppm), 2 sec exposure followed by 2 sec deionized water rinse, listed as PAA
  After treatment (CFU/frank): < 90 CFU/frank
Listeria monocytogenes; PAA 1000 ppm (actual 1146 ppm), 10 sec exposure followed by 10 sec deionized water rinse
  After treatment (CFU/frank): <90* CFU/frank
Listeria monocytogenes; PAA 1000 ppm (actual 1146 ppm), 10 sec exposure followed by 10 sec deionized water rinse, listed as PAA
  After treatment (CFU/frank): < 90 CFU/frank
